Data from patent US20110045101A1, “FUNGICIDAL SUBSTITUTED AZOLES” (E.I. Du Pont De Nemours and Company, priority 2009, published 2011).
Marks after values point to notes of the source that are not given here.

Assays:
Type in all cases: in vivo
[1] = system: Erysiphe graminis f. sp. tritici; assay: Test J: wheat powdery mildew on wheat seedlings, sprayed the day before inoculation, visual disease rating; conditions: 100 = 100% disease control; for pest or weed control at 200 ppm: Blumeria graminis, 168 h
In short: (§1)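 Plants received a run-off spray at 200 ppm (equivalent to 500 g/ha) or, for starred values, 40 ppm. Formulation used acetone at 3% of volume in a 50/50 acetone/water mix carrying 250 ppm Trem® 014.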

Septoria tritici = assay: Test G: wheat leaf blotch on wheat seedlings, sprayed the day before inoculation, visual disease rating; conditions: 100 = 100% disease control; for pest or weed control at 200 ppm: Zymoseptoria tritici, 504 h
In short: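 Visual disease ratings taken 19 days after transfer to a 20° C growth chamber, following 48 h in saturated atmosphere at 24° C. Seedlings had been sprayed to run-off one day before spore inoculation. Dose 200 ppm, or 40 ppm where starred.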

Botrytis cinerea = assay: Test C: tomato Botrytis on tomato seedlings, sprayed the day before inoculation, visual disease rating; conditions: 100 = 100% disease control; for pest or weed control at 200 ppm: Botrytis cinerea, 120 h
In short: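 Rate: 200 ppm sprayed to run-off, corresponding to 500 g/ha; flagged values used 40 ppm. Vehicle was aqueous acetone (1:1) plus 250 ppm surfactant, compounds predissolved in acetone at 3% of volume. Plants were tomato seedlings.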

Alternaria solani = assay: Test D: tomato early blight, sprayed the day before inoculation, visual disease rating; conditions: 100 = 100% disease control; for pest or weed control at 200 ppm: Alternaria solani, 168 h
In short: as §1

Septoria nodorum = assay: Test F: wheat glume blotch on wheat seedlings, sprayed the day before inoculation, visual disease rating; conditions: 100 = 100% disease control; for pest or weed control at 200 ppm: Parastagonospora nodorum, 264 h
In short: as §1

[2] = system: Puccinia recondita f. sp. tritici; assay: Test I: wheat leaf rust on wheat seedlings, sprayed the day before inoculation, visual disease rating; conditions: 100 = 100% disease control; for pest or weed control at 200 ppm: Puccinia recondita, 168 h
In short: as §1

[3] = system: Puccinia recondita f. sp. tritici; assay: Test H: wheat leaf rust, test suspension sprayed after inoculation of wheat seedlings, visual disease rating; conditions: 100 = 100% disease control; for pest or weed control at 200 ppm: Puccinia recondita, 96 h
In short: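 Wheat seedlings inoculated with P. recondita spores, held 24 h saturated at 20 °C, then 2 days in growth chamber at 20 °C; compound suspension (acetone/water with Trem 014) sprayed to run-off afterwards. Rated visually; 200 ppm (≈500 g/ha) unless marked *, which denotes 40 ppm.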

[4] = 200 ppm, 0 = no control relative to controls

Compound | Test J disease control rating [1, 4] [%] | Test G disease control rating (Septoria tritici; [4]) [%] | Test C disease control rating (Botrytis cinerea; [4]) [%] | Test D disease control rating (Alternaria solani; [4]) [%] | Test F disease control rating (Septoria nodorum; [4]) [%] | Test I disease control rating [2, 4] [%] | Test H disease control rating [3, 4] [%] | other results
Cc1ncn(-c2ccc(Cl)c(F)c2)c1-c1ccnc(Br)c1 [compound 345] | 0 | 27 | 64 | 0 | 0 | 0 | 0 | –
Fc1cccc(F)c1-c1c(Cl)nc(Cl)n1-c1ccccc1 [compound 591] | 98 | 97 | 100 | 100 | 0 | 98 | 96 | –
Cc1nc(Cl)c(-c2c(F)cccc2F)n1-c1ccc2ncccc2c1 [compound 468] | – | – | – | – | – | – | – | Test J disease control rating ([1]; 40 ppm (marked *)): 58* %; Test G disease control rating (Septoria tritici; 40 ppm (marked *)): 96* %; Test C disease control rating (Botrytis cinerea; 40 ppm (marked *)): 99* %; Test D disease control rating (Alternaria solani; 40 ppm (marked *)): 99* %; Test F disease control rating (Septoria nodorum; 40 ppm (marked *)): 0* %; Test I disease control rating ([2]; 40 ppm (marked *)): 91* %; Test H disease control rating ([3]; 40 ppm (marked *)): 0* %
COc1cc(F)c(-c2c(Cl)nc(C)n2-c2ccc(F)c(F)c2)c(F)c1 [compound 499] | 100 | 93 | 99 | 100 | 100 | 100 | 100 | –
Fc1ccc(-n2c(Cl)nc(Br)c2-c2ccc(Cl)cc2)c(Cl)c1 [compound 324] | 99 | 93 | 99 | 99 | 82 | 97 | 9 | –
CCOc1ccc(F)c(-c2c(Cl)nc(C)n2-c2cccc(F)c2)c1F [compound 724] | 99 | 98 | 100 | 100 | 97 | 100 | 0 | –
O=C(O)Cc1nc(Br)c(-c2c(F)cccc2F)n1-c1ccc(Cl)cc1 [Compound 570, 4-bromo-1-(4-chlorophenyl)-5-(2,6-difluorophenyl)-1H-imidazole-2-acetic acid] | – | – | – | – | – | – | – | pest or weed control at 200 ppm [1, 4]: 69%; pest or weed control at 200 ppm (Septoria tritici; [4]): 97%; pest or weed control at 200 ppm (Botrytis cinerea; [4]): 0%; pest or weed control at 200 ppm (Alternaria solani; [4]): 0%; pest or weed control at 200 ppm (Septoria nodorum; [4]): 0%; pest or weed control at 200 ppm [2, 4]: 13%; pest or weed control at 200 ppm [3, 4]: 0%
COc1ccc(-n2c(Cl)nc(Cl)c2-c2c(F)cccc2F)c(Cl)n1 [compound 620] | 99 | 98 | 100 | 99 | 90 | 100 | 100 | –
C=Cc1nc(Cl)c(-c2c(F)ccc(OC)c2F)n1-c1cccc(OC(F)F)c1 [Compound 583, 4-chloro-1-[3-(difluoromethoxy)phenyl]-5-(2,6-difluoro-3-methoxyphenyl)-2-ethenyl-1H-imidazole] | – | – | – | – | – | – | – | pest or weed control at 200 ppm [1, 4]: 83%; pest or weed control at 200 ppm (Septoria tritici; [4]): 94%; pest or weed control at 200 ppm (Botrytis cinerea; [4]): 99%; pest or weed control at 200 ppm (Alternaria solani; [4]): 97%; pest or weed control at 200 ppm (Septoria nodorum; [4]): 0%; pest or weed control at 200 ppm [2, 4]: 85%; pest or weed control at 200 ppm [3, 4]: 0%
Cc1ncc(Cc2c(F)cc(F)cc2F)n1-c1ccc(Cl)cc1 [compound 530] | 71 | 58 | 0 | 0 | 0 | 88 | 0 | –
Cc1nc(Cl)c(-c2c(F)ccc(F)c2F)n1Cc1ccc(Cl)cc1 [compound 293] | – | – | – | – | – | – | – | Test J disease control rating ([1]; 200 ppm, 0 = no control): 100%; Test G disease control rating (Septoria tritici; 200 ppm, 0 = no control): 95%; Test C disease control rating (Botrytis cinerea; 200 ppm, 0 = no control): 99%; Test D disease control rating (Alternaria solani; 200 ppm, 0 = no control): 91%; Test F disease control rating (Septoria nodorum; 200 ppm, 0 = no control): 0%; Test I disease control rating ([2]; 200 ppm, 0 = no control): 99%; Test H disease control rating ([3]; 200 ppm, 0 = no control): 6%
COC(=O)c1ccc(-n2cnc(N(C)C)c2-c2c(F)cccc2F)cc1 [compound 633] | – | – | – | – | – | – | – | Test J disease control rating ([1]; 40 ppm (marked *)): 0* %; Test G disease control rating (Septoria tritici; 40 ppm (marked *)): 0* %; Test C disease control rating (Botrytis cinerea; 40 ppm (marked *)): 0* %; Test D disease control rating (Alternaria solani; 40 ppm (marked *)): 0* %; Test F disease control rating (Septoria nodorum; 40 ppm (marked *)): 0* %; Test I disease control rating ([2]; 40 ppm (marked *)): 44* %; Test H disease control rating ([3]; 40 ppm (marked *)): 0* %
Cc1nc(Cl)n(-c2ccc(Cl)nc2)c1-c1c(F)cccc1F [compound 693] | 100 | 99 | 100 | 100 | 99 | 100 | 100 | –
Fc1cccc(F)c1-c1c(Br)nc(Br)n1-c1cccnc1Cl [compound 618] | 97 | 98 | 98 | 85 | 0 | 99 | 99 | –
COc1ccc(F)c(-c2c(Cl)nc(C)n2-c2cccc(F)c2)c1F [compound 315] | 100 | 95 | 99 | 100 | 100 | 100 | 86 | –
COc1cc(F)c(-c2c(Cl)nc(Cl)n2-c2ccc(OC)nc2)c(F)c1 [compound 516] | 100 | 100 | 97 | 100 | 100 | 100 | 100 | –
COc1ccc(-n2c(Br)nc(C)c2-c2c(F)cccc2F)cn1 [compound 719] | 100 | 99 | 99 | 100 | 98 | 100 | 99 | –
CNC(=O)Cc1nc(Br)c(-c2c(F)cccc2F)n1-c1ccc(Cl)cc1 [Compound 571, 4-bromo-1-(4-chlorophenyl)-5-(2,6-difluorophenyl)-N-methyl-1H-imidazole-2-acetamide] | – | – | – | – | – | – | – | pest or weed control at 200 ppm [1, 4]: 0%; pest or weed control at 200 ppm (Septoria tritici; [4]): 82%; pest or weed control at 200 ppm (Botrytis cinerea; [4]): 33%; pest or weed control at 200 ppm (Alternaria solani; [4]): 0%; pest or weed control at 200 ppm (Septoria nodorum; [4]): 0%; pest or weed control at 200 ppm [2, 4]: 90%; pest or weed control at 200 ppm [3, 4]: 0%
Cc1ncn(-c2ccc(Cl)c(F)c2)c1-c1ccnc(F)c1 [compound 319] | 81 | 98 | 99 | 24 | 0 | 28 | 6 | –
COc1cc(Cl)cc(Cl)c1-c1c(Cl)nc(Cl)n1-c1ccc(Cl)c(F)c1 [compound 438] | 0 | – | 0 | 0 | 0 | 0 | 0 | Test G disease control rating (Septoria tritici; 40 ppm (marked *), 0 = no control): 86* %
CCc1cccc(-n2c(Cl)nc(Cl)c2-c2c(F)ccc(OC)c2F)c1 [compound 427] | 100 | 100 | 100 | 100 | 99 | 93 | 0 | –
Fc1ccc(-n2c(Cl)nc(Br)c2-c2ccc(Cl)c(F)c2)c(Cl)c1 [compound 326] | 100 | 96 | 100 | 100 | 51 | 98 | 67 | –
CCOc1cc(F)c(-c2c(Cl)ncn2-c2ccc(C)cc2)c(F)c1 [compound 723] | 95 | 97 | 100 | 99 | 0 | 68 | 66 | –
